In general, pIC50 refers to −log10 of the IC50, conventionally taken in molar units. The pKd is −log10 of the Kd, conventionally taken in molar units. Low readings indicate a large Kd, high ones a small Kd.

pIC50, pKd: −log10 of the molar value. Active and inactive are the calls of the source. The rule behind the calls is not given here.

The target of experiment [1] is T1, Solute carrier family 2, facilitated glucose transporter member 1 (Homo sapiens) (UniProt P11166).
T1 sequence (whole entry): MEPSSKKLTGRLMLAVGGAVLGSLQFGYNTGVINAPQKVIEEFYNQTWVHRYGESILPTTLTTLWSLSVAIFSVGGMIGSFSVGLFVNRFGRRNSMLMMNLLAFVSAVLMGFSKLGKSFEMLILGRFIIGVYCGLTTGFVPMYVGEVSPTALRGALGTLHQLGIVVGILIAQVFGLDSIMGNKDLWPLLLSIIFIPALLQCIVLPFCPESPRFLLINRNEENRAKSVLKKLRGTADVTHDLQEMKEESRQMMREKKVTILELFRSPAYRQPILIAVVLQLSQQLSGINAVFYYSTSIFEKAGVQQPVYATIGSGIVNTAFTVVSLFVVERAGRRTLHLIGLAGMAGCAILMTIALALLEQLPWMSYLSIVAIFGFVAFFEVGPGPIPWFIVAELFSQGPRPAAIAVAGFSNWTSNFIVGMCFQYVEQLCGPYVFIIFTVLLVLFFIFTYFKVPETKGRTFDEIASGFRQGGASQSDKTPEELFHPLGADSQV
In words: Inhibition of GLUT1 in human H1299 cells assessed as inhibition of 2-deoxy-D-[3H]-glucose uptake at 30 uM incubated for 15 mins prior to 2-deoxy-D-[3H]-glucose addition measured after 30 mins by liquid scintillation counting analysis. Type of experiment: cell-based.

Experiment [2] in a line: Cytotoxicity against human H1299 cells assessed as growth inhibition after 48 hrs by MTT assay. Type of experiment: functional, cell-based. The following applies: NCI-H1299, 48 h.
The target of experiment [3] is T2, Solute carrier family 2, facilitated glucose transporter member 1 (Homo sapiens, UniProt P11166).
T2 sequence (P11166 whole entry): T1 sequence (whole entry)
In words: Inhibition of GLUT1 in human H1299 cells assessed as inhibition of 2-deoxy-D-[3H]-glucose uptake incubated for 15 mins prior to 2-deoxy-D-[3H]-glucose addition measured after 30 mins by liquid scintillation counting analysis. It counts as cell-based.

For another experiment, the target named is Estrogen receptor beta (Homo sapiens, UniProt Q92731). The experiment can be described thus: Displacement of [3H]E2 from full-length human ERbeta after 18 to 24 hrs by radiometric assay. Background: Loss of bound radioactivity is the signal in a displacement assay; it reports binding, not function.
A further experiment concerns NCI-H1299. In words: Cytotoxicity against human H1299 cells assessed as growth inhibition at 30 uM after 48 hrs by MTT assay. It counts as functional, cell-based. For orientation: Tetrazolium assays rely on reduction of a dye to a coloured formazan, in cell work by metabolically active cells.
In the next experiment the target is T3, Estrogen receptor (Homo sapiens, UniProt P03372).
T3 sequence (P03372 whole entry): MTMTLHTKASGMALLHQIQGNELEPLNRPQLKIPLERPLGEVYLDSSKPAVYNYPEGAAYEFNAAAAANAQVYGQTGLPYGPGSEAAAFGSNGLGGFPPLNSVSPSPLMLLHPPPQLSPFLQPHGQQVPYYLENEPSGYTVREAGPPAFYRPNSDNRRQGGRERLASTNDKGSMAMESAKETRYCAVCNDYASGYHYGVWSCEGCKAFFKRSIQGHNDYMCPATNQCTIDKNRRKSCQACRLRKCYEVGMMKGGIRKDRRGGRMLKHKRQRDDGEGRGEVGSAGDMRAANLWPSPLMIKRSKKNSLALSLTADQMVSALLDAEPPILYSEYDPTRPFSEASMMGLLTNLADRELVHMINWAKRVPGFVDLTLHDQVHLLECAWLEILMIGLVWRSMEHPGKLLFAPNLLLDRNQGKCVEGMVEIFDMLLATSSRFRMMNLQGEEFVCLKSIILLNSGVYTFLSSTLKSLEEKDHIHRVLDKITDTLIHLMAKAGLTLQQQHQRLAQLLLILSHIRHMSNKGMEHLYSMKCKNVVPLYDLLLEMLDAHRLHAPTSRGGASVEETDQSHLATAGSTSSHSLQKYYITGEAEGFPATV
In words: Binding affinity to human estrogen receptor assessed as decrease in estradiol-dependent beta-galactosidase activity.

Chain of Estrogen receptor beta (Q92731 whole entry): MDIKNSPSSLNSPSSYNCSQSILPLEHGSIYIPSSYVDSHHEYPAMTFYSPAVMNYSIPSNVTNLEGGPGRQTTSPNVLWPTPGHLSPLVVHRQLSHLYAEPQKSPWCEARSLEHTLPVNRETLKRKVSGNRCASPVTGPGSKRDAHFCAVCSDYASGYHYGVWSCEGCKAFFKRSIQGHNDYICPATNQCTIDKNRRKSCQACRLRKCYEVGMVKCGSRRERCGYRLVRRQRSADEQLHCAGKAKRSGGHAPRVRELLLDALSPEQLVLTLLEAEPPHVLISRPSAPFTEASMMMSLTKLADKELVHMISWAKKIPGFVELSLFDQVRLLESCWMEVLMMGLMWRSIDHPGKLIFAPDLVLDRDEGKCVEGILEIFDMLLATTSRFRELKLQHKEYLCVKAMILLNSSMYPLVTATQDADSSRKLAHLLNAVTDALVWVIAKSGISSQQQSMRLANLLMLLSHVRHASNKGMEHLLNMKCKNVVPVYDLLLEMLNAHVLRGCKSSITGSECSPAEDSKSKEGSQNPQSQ

In the case of `Cc1c(-c2ccc(O)cc2)ccc(/C=N/O)c1O`, the inhibition entry in experiment [1] is “Active”.
On to `COc1ccc(-c2ccc(O)c(/C=N/O)c2)cc1`, for which the pIC50 in experiment [2] is 4.69; in experiment [3], 4.63.
The corresponding values for `COc1ccc(-c2ccc(/C(C)=N/O)c(O)c2Cl)cc1F` are 4.40 and 4.81.
Regarding `O=C(Oc1cccc(F)c1OC(=O)c1cccc(O)c1)c1cccc(O)c1`, the pIC50 is 4.69 in experiment [2] and 4.96 in experiment [3].
Regarding `O/N=C/c1cc(-c2ccc(O)c(F)c2)ccc1O`, the negative logarithm of the Kd (pKd) at Estrogen receptor beta is 7.29. In addition, in the experiment with NCI-H1299, the “growth inhibition (GI)” value is “Active”. Besides, in experiment [1], the inhibition entry was “Active”.
Turning to `O/N=C/c1c(O)ccc(-c2ccc(O)cc2)c1-c1ccc(O)cc1`, the inhibition entry in experiment [1] was “Active”.
For the compound `COc1ccc(-c2ccc(O)c(/C=N/O)c2)cc1F`, the negative logarithm of the IC50 (pIC50) in experiment [2] is 4.85; in experiment [3], 5.07.
In the case of `COc1ccc(-c2ccc(/C=N/O)c(O)c2C)cc1`, the inhibition entry in experiment [1] was “Active”.
For `N#Cc1c(-c2ccc(O)cc2)ccc(/C=N/O)c1O`, the inhibition result in experiment [1] is “Active”.
As to `C/C(=N\O)c1ccc(-c2ccc(O)cc2)c(Cl)c1O`, the pIC50 was 4.46 in experiment [2] and 4.97 in experiment [3].
With `O/N=C/c1cc(-c2ccc(O)cc2)ccc1O`, the inhibition entry in experiment [1] is “Active”.
Regarding `O/N=C/c1c(O)ccc(-c2ccc(O)cc2)c1Cl`, the inhibition result in experiment [1] is “Active”.
The same measure, in the same setting: then `C/C(=N\O)c1ccc(-c2ccc(O)c(F)c2)c(Cl)c1O`, with “Active”.
Take `O=C(CCc1ccc(O)cc1)c1c(O)cc(O)cc1O` [PHLORETIN]: the negative logarithm of the IC50 (pIC50) at Estrogen receptor is 6.52; in experiment [2] it was 4.27; in experiment [3], 4.67.
Take `O/N=C/c1c(O)ccc(-c2ccc(O)c(F)c2)c1Cl`: the inhibition result in experiment [1] was “Active”.
